Experiments:
human platelet PDE3 = target: T1, human platelet PDE3 (Homo sapiens, UniProt Q14432); test: hPDE3 assay ([3H]cAMP scintillation proximity assay); assay type: biochemical; details: human platelet PDE3, [3H]cAMP SPA, 30 min at room temperature
T1 construct: Human platelet PDE3 (partially purified from human platelets); from tissue; host or cells: human platelets

[1] = target: c-MET receptor tyrosine kinase, GST-c-MET(969-1390) (Homo sapiens, UniProt P08581); test: EPK c-MET profiling assay (LanthaScreen TR-FRET kinase assay); assay type: biochemical; details: 2 μM ATP, 0.3 nM enzyme, 60 minutes at room temperature; end point measurement, repeats can be about two times higher or lower; read-out: c-Met Biochem IC50
c-MET receptor tyrosine kinase, GST-c-MET(969-1390), sequence (P08581 969-1390): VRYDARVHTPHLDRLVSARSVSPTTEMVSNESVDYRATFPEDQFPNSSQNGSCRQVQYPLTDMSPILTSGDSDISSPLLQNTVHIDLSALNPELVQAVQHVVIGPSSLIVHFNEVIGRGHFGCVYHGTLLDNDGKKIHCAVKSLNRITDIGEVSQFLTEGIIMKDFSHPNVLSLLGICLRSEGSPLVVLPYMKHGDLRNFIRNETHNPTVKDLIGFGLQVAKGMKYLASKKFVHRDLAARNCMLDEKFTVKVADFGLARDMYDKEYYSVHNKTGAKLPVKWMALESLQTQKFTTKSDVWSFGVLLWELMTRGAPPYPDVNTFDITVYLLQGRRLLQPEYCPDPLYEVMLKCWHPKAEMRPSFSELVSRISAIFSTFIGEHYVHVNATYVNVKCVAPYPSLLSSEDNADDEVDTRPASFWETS
Procedure: The exemplified compounds of the present invention were assayed in an antibody based kinase phosphorylation assay as follows.
EPK c-MET Profiling Assay:
The EPK kinase assay for c-MET receptor tyrosine kinase was developed, using the purified recombinant GST-fusion protein, containing the cytoplasmic domain of the enzyme. GST-c-MET(969-1390) was purified by affinity chromatography.
The kinase assay is based on the LanthaScreen™ technology. LanthaScreen™ is the detection of Time-Resolved Fluorescence Resonance Energy Transfer (TR-FRET) using lanthanide chelates to measure interactions between various binding partners. In a TR-FRET kinase assay, a long-lifetime lanthanide donor species is conjugated to an antibody that specifically binds to a phosphorylated product of a kinase reaction that is labeled with a suitable acceptor fluorophore. This antibody-mediated interaction brings the lanthanide donor and the acceptor into proximity such that resonance energy transfer can take place, resulting in a detectable increase in the FRET signal.
The kinase reactions were performed in 384 well microtiter plates in a total reaction volume of 10.05 μL. The assay plates were prepared with 0.05 μL per well of test compound in the appropriate test concentration, as described under “preparation of compound dilutions”. The reactions were started by combining 5 μL of ATP solution with 5 μL of enzyme-substrate mix (consisting of kinase and substrate). The final concentrations in the kinase reactions were 25 mM Tris/HCl, 1 mM DTT, 0.025% Tween20, 10 μM sodium orthovanadate, 0.25% BSA, 0.5% DMSO, 10 mM MgCl2, 3 mM MnCl2, 2 μM ATP, 50 nM Fluorescein-PolyEAY, and 0.3 nM enzyme. The reactions were incubated for 60 minutes at room temperature and stopped by adding 5 μL of stop buffer (50 mM EDTA, 0.04% NP40, 20 mM Tris/HCl). Subsequently 5 μL of detection mix (50 mM Tris/HCl, 2 mM DTT, 0.05% Tween20, 20 μM sodium orthovanadate, 1% BSA, 1 nM Tb-PY20 antibody) were added to the stopped reactions. After 45 minutes incubation in dark at room temperature, the plates were measured in a Perkinelmer Envision fluorescence reader. The effect of compound on the enzymatic activity was in all assays obtained from the linear progress curves and normally determined from one reading (end point measurement).
These endpoint results should therefore only be seen as an indicator for the activity range, since repeated measurements can result in about two times higher or lower values.

GTL16 cells = test: GTL16 cell viability assay (CellTiter Glo); assay type: cell-based; details: Homo sapiens, GTL 16, GTL16 gastric cancer cells, 24 hours, triplicates, read-out: GTL-16 Proliferation IC50
Procedure: GTL16 cell line is derived from a gastric cancer patient. GTL16 expresses high level of c-Met receptor tyrosine kinase due to the gene amplification.
GTL16 cells were seeded in DMEM medium with 10% FBS and 1% Pene. & Strep. at 5000 cells/well/90 μL in 96 well plate and incubated overnight for attachment at 37° C. in 5% CO2 incubator. 10-fold serials dilutions of compounds were added to the cell as 10 μL/well. The final assay volume was 100 μl/well. The assay plates were incubated at 37° C. in 5% CO2 incubator for 24 hours. […] Briefly, the plates were cooled at room temperature for 10 mins and 100 μl of CellTiter Glo reagent was added into each well. Plates were shaken for 10 mins. The chemiluminescent light unit was read in Envision from Perkin Elmer. All the tests were run at triplicates. The IC50 was calculated using Spotfire software.

T1 sequence (Q14432 whole entry): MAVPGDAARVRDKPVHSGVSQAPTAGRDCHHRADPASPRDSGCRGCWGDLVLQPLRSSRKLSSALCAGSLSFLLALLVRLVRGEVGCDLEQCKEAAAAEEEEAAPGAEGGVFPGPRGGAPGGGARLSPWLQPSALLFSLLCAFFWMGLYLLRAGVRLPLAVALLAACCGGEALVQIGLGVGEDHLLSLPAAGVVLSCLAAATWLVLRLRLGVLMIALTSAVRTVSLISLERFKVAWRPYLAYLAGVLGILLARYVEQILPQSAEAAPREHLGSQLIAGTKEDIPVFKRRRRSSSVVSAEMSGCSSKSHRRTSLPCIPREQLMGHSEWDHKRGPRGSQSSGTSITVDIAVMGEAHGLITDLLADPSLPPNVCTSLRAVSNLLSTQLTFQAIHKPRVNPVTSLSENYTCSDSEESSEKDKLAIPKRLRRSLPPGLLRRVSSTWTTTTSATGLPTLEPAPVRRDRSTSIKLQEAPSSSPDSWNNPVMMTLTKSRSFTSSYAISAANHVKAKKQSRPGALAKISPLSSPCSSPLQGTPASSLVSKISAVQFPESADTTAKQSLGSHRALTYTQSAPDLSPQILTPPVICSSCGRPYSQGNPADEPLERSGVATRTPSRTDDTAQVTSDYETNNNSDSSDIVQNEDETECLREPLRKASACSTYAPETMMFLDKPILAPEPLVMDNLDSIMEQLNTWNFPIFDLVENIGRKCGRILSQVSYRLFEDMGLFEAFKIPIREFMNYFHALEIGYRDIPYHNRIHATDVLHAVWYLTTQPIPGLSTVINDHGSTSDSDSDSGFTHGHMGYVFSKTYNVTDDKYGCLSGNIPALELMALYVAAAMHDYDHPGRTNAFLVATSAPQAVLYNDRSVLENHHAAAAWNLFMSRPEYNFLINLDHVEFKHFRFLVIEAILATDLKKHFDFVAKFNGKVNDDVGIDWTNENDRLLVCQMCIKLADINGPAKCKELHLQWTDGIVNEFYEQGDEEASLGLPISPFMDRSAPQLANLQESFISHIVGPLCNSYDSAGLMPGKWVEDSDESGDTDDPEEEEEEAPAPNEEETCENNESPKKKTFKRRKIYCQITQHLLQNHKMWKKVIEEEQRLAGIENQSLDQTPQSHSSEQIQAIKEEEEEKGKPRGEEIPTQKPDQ

Row | SMILES | IC50 (human platelet PDE3) [nM] | IC50 [1] [nM] | IC50 (GTL16 cells) [nM]
1 | C/C(=N\OCC1CC1)c1ccc2nnc([C@H](C)c3ccc4ncc(-c5cnn(C)c5)cc4c3)n2n1 [Example 4-(R)] | 10000 | 144 | 99
2 | C/C(=N\O)c1ccc2nnc(Sc3ccc4ncc(CN5CCOCC5)cc4c3)n2n1 [Example 31, (E)-1-(3-((3-(Morpholin-4-yl-methyl)quinolin-6-yl)sulfanyl)-[1,2,4]triazolo[4,3-b]pyridazin-6-yl)-ethanone oxime] | > 30000 | 3 | 23
3 | CCN(CC)Cc1cnc2ccc(Sc3nnc4ccc(/C(C)=N/O)nn34)cc2c1 [Example 32, (E)-1-(3-((3-((diethylamino)methyl)quinolin-6-yl)sulfanyl)-[1,2,4]triazolo[4,3-b]pyridazin-6-yl)ethanone oxime] | > 30000 | 4 | 256
